Patent US7541331B2, “Surfactant treatment regimen” (Discovery Laboratories, Inc., priority 2005, dated 2009)

Tested on: premature neonates
Test: Pilot phase 2 open study of lucinactant delivered as an aerosol via nCPAP for prevention of RDS
Settings: in vivo
Description: This example provides a protocol for administration of lucinactant as an aerosol via nCPA to premature infants. This protocol has been used in a pilot phase 2, open study to evaluate the feasibility, safety, and tolerability of lucinactant delivered as an aerosol via nCPAP for the prevention of RDS in premature neonates.
Lucinactant was administered using an approved vibrating machine device (Aeroneb-Pro® or equivalent) and delivered via nCPAP within 30 minutes of birth. In a first treatment group, 20 mg/ml of lucinactant was administered within the first 30 minutes of life continually over three hours. Up to three retreatments were permitted over a 48 hour period, with each treatment separated by at least 3 hours (from end of previous treatment). In a second treatment group, 20 mg/ml of lucinactant was administered within the first 30 minutes of life continually over three hours. Up to three retreatments were permitted over a 48 hour period, with each treatment separated by at least one hours (from end of previous treatment).
Qualified premature neonates were sequentially enrolled and stratified by gestational age (stratum 1:30-32 completed weeks followed by stratum 2:28-29 completed weeks) into the first treatment regimen group (3 hours on aerosol treatment/3 hours off aerosol treatment) and received aerosolized lucinactant via nCPAP. Safety and tolerability data were evaluated after enrollment of every five neonates. Once enrollment in the first treatment group was completed, neonates were sequentially enrolled and stratified into the second treatment group (3 hours on aerosol treatment/1 hours off aerosol treatment). All neonates enrolled were evaluated through 28 days of age.

lucinactant
adverse effects considered related to both study drug and the device: 35.3% | adverse effects considered related to study drug: 47.1% | adverse effects considered related to the device: 11.8% | incidence of apnea: 94.1% | incidence of hypocalcemia: 29.4% | incidence of oxygen saturation decreased: 70.6% | incidence of patent ductus arteriosus: 35.3% | safety and tolerability of treatment: generally safe and well tolerated | serious adverse effects considered related to the device: Two | total adverse effects reported: 83 | total serious adverse effects reported: 5
